Experimental data from patent publication US20090131470A1, “PYRAZOLE-SUBSTITUTED BENZIMIDAZOLE DERIVATIVES FOR USE IN THE TREATMENT OF CANCER AND AUTOIMMUNE DISORDERS” (priority 2005, published 2009).

Columns and labels:
Format in all cases: biochemical
FGFR4 = FGFR4 (Homo sapiens, UniProt P22455); test: Kinase selectivity screening (example 14)
GST-Chk1 enzyme = molecular target: T1, GST-Chk1 enzyme (Homo sapiens, UniProt O14757); test: Chk1 kinase assay (33P Chktide phosphorylation); details: 0.01 mM ATP, 40 minutes at 30° C.; read-out: CHK-1 IC50
T1 sequence (O14757 1-476): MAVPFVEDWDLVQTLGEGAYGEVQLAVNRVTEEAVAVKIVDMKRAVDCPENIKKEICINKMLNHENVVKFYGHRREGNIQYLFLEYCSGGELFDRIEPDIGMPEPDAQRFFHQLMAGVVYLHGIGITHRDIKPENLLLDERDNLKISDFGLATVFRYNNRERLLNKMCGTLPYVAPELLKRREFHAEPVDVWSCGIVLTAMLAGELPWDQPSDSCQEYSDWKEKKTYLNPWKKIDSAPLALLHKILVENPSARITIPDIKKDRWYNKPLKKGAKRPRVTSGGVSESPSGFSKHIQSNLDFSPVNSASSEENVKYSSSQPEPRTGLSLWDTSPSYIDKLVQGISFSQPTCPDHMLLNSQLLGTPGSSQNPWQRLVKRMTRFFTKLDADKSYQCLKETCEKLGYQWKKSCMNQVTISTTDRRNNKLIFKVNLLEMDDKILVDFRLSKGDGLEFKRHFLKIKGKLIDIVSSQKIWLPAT

EGFR = EGFR (Homo sapiens, UniProt P00533); test: Kinase selectivity screening (example 14)
Akt1 = molecular target: T2, Akt1 (Homo sapiens, UniProt P31749); test: Akt1 kinase assay (Histone H1 substrate); details: 200 μM ATP, read-out: AKT-1 IC50
T2 construct: purchased Upstate

PDGFRa = PDGFRa (Homo sapiens, UniProt P16234); test: Kinase selectivity screening (example 14)
Sequence of PDGFRa (P16234 24-1089): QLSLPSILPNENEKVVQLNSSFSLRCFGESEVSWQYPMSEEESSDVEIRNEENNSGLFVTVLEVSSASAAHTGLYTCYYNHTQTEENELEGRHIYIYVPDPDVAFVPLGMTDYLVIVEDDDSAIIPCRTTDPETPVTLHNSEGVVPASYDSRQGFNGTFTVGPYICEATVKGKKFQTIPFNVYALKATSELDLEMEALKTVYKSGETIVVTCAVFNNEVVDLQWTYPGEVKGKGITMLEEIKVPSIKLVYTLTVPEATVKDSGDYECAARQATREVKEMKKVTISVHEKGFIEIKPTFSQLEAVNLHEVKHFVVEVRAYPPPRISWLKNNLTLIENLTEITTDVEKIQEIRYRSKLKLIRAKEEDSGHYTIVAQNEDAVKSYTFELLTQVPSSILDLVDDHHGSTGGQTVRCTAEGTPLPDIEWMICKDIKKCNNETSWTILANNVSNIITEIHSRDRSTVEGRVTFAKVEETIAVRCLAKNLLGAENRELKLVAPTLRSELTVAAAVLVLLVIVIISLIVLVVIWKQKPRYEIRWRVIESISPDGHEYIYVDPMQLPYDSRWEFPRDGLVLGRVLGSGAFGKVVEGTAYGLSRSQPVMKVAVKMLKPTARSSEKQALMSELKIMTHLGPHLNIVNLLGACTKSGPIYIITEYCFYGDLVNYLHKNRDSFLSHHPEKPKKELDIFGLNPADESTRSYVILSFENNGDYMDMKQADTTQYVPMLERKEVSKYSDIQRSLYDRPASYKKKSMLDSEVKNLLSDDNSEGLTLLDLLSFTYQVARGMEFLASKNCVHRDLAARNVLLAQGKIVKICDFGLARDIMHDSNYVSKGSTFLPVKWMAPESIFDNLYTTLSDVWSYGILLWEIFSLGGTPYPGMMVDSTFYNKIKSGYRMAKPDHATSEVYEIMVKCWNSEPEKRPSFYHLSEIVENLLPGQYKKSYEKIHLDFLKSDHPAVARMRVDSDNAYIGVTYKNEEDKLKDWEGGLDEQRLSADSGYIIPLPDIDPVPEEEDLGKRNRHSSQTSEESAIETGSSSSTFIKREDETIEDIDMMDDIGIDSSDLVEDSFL

T2 sequence (P31749 whole entry, species assumed): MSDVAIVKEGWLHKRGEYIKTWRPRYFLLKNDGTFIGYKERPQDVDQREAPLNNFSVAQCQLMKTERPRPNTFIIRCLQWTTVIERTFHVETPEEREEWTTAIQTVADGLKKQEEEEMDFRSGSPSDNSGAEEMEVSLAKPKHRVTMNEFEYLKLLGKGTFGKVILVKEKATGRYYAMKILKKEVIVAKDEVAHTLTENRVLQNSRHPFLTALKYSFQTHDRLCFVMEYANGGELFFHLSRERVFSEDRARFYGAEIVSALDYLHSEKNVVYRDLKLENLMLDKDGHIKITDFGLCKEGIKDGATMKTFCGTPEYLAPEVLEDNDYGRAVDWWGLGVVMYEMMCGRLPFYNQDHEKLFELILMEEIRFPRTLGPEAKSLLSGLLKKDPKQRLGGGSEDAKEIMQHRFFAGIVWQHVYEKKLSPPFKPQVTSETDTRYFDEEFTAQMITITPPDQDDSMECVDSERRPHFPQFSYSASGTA
Sequence of EGFR (P00533 25-1210): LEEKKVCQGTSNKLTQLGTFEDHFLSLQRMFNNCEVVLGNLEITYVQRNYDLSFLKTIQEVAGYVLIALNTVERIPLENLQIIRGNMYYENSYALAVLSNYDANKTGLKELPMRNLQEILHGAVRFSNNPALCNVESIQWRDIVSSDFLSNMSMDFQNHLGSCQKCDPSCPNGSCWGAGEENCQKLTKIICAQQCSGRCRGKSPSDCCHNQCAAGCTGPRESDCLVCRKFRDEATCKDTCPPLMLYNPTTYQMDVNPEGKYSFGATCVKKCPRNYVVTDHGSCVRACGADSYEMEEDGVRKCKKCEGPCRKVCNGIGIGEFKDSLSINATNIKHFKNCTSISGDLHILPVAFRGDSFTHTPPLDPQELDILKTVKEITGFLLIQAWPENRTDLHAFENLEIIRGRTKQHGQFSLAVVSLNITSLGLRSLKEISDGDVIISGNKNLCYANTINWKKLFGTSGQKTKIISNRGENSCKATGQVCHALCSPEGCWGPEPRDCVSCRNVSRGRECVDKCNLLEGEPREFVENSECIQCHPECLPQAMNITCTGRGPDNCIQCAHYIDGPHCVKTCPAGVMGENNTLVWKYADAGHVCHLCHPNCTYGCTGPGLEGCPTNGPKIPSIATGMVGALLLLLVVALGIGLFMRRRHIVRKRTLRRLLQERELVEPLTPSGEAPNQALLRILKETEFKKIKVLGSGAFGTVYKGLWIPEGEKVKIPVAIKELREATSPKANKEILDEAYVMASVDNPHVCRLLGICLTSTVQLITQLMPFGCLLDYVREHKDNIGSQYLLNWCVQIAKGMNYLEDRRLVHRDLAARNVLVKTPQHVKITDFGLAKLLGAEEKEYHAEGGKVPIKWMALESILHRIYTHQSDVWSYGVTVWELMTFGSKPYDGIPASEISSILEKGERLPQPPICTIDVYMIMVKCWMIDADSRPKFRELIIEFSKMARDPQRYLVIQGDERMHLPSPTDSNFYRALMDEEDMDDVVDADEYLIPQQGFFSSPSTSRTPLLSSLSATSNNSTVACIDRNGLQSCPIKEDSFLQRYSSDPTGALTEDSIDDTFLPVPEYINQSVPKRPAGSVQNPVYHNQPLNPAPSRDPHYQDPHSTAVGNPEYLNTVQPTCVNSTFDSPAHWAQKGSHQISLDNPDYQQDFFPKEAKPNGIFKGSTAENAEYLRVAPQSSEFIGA
Sequence of FGFR4 (P22455 22-802, species assumed): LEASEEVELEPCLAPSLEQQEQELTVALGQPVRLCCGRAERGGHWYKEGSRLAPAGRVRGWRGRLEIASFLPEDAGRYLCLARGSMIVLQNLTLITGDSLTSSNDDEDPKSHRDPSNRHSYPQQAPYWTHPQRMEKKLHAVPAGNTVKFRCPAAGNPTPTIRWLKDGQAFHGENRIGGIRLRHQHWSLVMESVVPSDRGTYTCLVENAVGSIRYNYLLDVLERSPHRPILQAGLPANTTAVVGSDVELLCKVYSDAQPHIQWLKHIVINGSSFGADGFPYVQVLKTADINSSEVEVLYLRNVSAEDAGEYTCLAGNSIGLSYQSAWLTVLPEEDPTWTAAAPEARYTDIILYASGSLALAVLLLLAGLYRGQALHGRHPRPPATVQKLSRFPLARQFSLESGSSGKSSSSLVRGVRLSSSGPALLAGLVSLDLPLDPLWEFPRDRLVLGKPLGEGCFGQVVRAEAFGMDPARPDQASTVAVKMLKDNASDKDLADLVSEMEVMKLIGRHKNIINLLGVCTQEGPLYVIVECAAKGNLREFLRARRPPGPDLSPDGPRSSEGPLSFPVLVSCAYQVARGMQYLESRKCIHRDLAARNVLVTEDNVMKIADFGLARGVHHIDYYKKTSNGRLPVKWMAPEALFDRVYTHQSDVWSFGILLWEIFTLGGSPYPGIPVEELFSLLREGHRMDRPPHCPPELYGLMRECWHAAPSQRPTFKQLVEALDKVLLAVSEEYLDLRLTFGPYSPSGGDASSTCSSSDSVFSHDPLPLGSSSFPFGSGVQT

Cc1[nH]nc(-c2nc3cc4cn[nH]c4cc3[nH]2)c1C(=O)NC1CCNCC1 [Example 14]
selectivity versus FGFR4 (FGFR4): > 20 fold
IC50 (GST-Chk1 enzyme): 0.006 µM
selectivity versus EGFR (EGFR): > 20 fold
IC50 (Akt1): 26.8 µM
selectivity versus PDGFRa (PDGFRa): > 20 fold
